Results: patent publication US9890147B2 (BAYER PHARMA AKTIENGESELLSCHAFT, priority 2012, dated 2018)

Legend:
[1] = tested on: MOLM-13 cells; assay: Cell proliferation assay (alamarBlue), MOLM-13; assay type: cell-based; details: Homo sapiens, 96 hours incubation, inhibition of cell proliferation
How it was run: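 Cells in RPMI1640/10% FCS read by alamarBlue fluorescence (ex 530, em 590 nm) after overnight 37 °C incubation, then treated at 1E-5 to 1E-8 M for 96 h. Pre-treatment values subtracted from endpoint values and compared with buffer-only wells; IC50 is 50% proliferation inhibition.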

[2] = biological target: T1, BRD4 (BD1) (Homo sapiens, UniProt O60885); assay: Binding assay BRD4/acetylated peptide H4 (TR-FRET protein-protein interaction assay)
T1 construct: with relatively long constructs also being possible, preferably amino acids 44-168; made in house; host or cells: E. coli
How it was run: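 His6-BRD4 BD1 (aa 67-152, E. coli), usually 10 nM, with biotinylated tetra-acetylated H4 peptide in HEPES pH 7.5 buffer; 11 compound concentrations 0.1 nM–20 μM in duplicate, 10 min preincubation, 1 h at 22 °C then ≥3 h at 4 °C. TR-FRET 665/620 ratio; IC50 by 4-parameter fit.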

[3] = tested on: B16F10 cells; assay: Cell proliferation assay (alamarBlue), B16F10; assay type: cell-based; details: Mus musculus, B16-F10, 96 hours incubation, inhibition of cell proliferation
Procedure: (§1) In accordance with the invention, the capability of the substances to inhibit cell proliferation was determined Cell viability was determined using the alamarBlue® reagent (Invitrogen) in a Victor X3 Multilabel Reader (Perkin Elmer). The excitation wavelength was 530 nm and the emission wavelenth […].
The B16F10 cells (ATCC, CRL-6475) were sown at a concentration of 300-500 cells/well in 100 μl growth medium (DMEM with phenol red, 10% FCS) on 96-well microtitre plates.
(§2) After an overnight incubation at 37° C., the fluorescence values (CI values) were determined. The plates were then treated with various substance dilutions (1E-5 M, 3E-6 M, 1E-6M, 3E-7 M, 1E-7 M, 3E-8 M, 1E-8 M) and incubated at 37° C. for 72 (MV4-11-, LOX-IMVI cells), 96 (MOLM-13-, B16F10-, MDA-MB-431-, Caov-3 cells), 120 (MOLP-8-, KMS-12-PE cells) or 168 (LAPC-4 cells) hours. The fluorescence values (CO values) were then determined. For the data analysis, the CI values were subtracted from the CO values and the results were compared between cells treated with different dilutions of the substance or with buffer solution only. These were used to calculate the IC 50 values (substance concentration required for 50% inhibition of cell proliferation).

[4] = tested on: LAPC-4 cells; assay: Cell proliferation assay (alamarBlue), LAPC-4; assay type: cell-based; details: Homo sapiens, LAPC4; inhibition of cell proliferation, LAPC-4 (prostate cancer), 1 nM methyltrienolone, 168 hours
Procedure: as §1
The LAPC-4 cells (ATCC, PTA-1441TM) were sown at a concentration of 4000 cells/well in 100 μl growth medium (RPMI1640, 2 mM L-glutamine, 10% cFCS) on 96-well microtitre plates. A day later, the LAPC-4 cells were treated with 1 nM methyltrienolone and various substance dilutions.
as §2

[5] = tested on: MOLP-8 cells; assay: Cell proliferation assay (alamarBlue), MOLP-8; assay type: cell-based; details: Homo sapiens, 120 hours incubation, inhibition of cell proliferation
How it was run: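 MOLP-8 cells in RPMI1640 with 20% FCS, 4000 cells/well, treated overnight after seeding with substance at 1E-5 to 1E-8 M for 120 h at 37° C. Viability read by alamarBlue fluorescence (ex 530, em 590); pre-treatment values subtracted, compared with buffer-only cells to derive IC50.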

CNC(=O)N1N=C(c2ccc(N3CC(OC)C3)cc2)c2cc(OC)c(OC)cc2CC1C (racemic) [Example 187, (±)-7,8-dimethoxy-1-[4-(3-methoxyazetidin-1-yl)phenyl]-N,4-dimethyl-4,5-dihydro-3H-2,3-benzodiazepine-3-carboxamide] was tested, and the IC50 [1] was 330 nM, the IC50 [2] was 80 nM and the IC50 [3] was 170 nM.
CNC(=O)N1N=C(c2ccc(N3CCC(C)(O)CC3)cc2)c2cc(OC)c(OC)cc2CC1C (racemic) [Example 188, (±)-1-[4-(4-hydroxy-4-methylpiperidin-1-yl)phenyl]-7,8-dimethoxy-N,4-dimethyl-4,5-dihydro-3H-2,3-benzodiazepine-3-carboxamide] was tested, and the IC50 [1] was 200 nM, the IC50 [2] was 50 nM and the IC50 [3] was 100 nM.
For CNC(=O)C1CCN(c2ccc(C3=NN(C(=O)NC)C(C)Cc4cc(OC)c(OC)cc43)cc2)CC1 (racemic) [Example 189, (±)-7,8-dimethoxy-N,4-dimethyl-1-{4-[4-(methylcarbamoyl)piperidin-1-yl]phenyl}-4,5-dihydro-3H-2,3-benzodiazepine-3-carboxamide], the IC50 [1] was 440 nM, the IC50 [2] was 60 nM and the IC50 [3] was 210 nM.
Work on CNC(=O)N1N=C(c2ccc(N3CCN(C)CC3)cc2)c2cc(OC(F)(F)F)ccc2CC1C (racemic) [Example 250, (±)-N,4-dimethyl-1-[4-(4-methyl-1-piperazinyl)phenyl]-8-(trifluoromethoxy)-4,5-dihydro-3H-2,3-benzodiazepine-3-carboxamide] yielded an IC50 [1] of 140 nM, an IC50 [2] of 40 nM and an IC50 [3] of 100 nM.
For CNC(=O)N1N=C(c2ccc(-c3ccn[nH]3)cc2)c2cc(OC)ccc2C[C@@H]1C [Example 23, (4S)-8-methoxy-N,4-dimethyl-1-[4-(1H-pyrazol-5-yl)phenyl]-4,5-dihydro-3H-2,3-benzodiazepine-3-carboxamide], the IC50 [4] was 190 nM, the IC50 [1] was 270 nM and the IC50 [2] was 90 nM.
With CNC(=O)N1N=C(c2ccc(-n3nc(COC)cc3C)cc2)c2cc(OC)ccc2C[C@@H]1C [Example 26, (4S)-8-methoxy-1-{4-[3-(methoxymethyl)-5-methyl-1H-pyrazol-1-yl]phenyl}-N,4-dimethyl-4,5-dihydro-3H-2,3-benzodiazepine-3-carboxamide] the IC50 [4] was 130 nM, the IC50 [1] was 430 nM and the IC50 [2] was 40 nM.
With CNC(=O)N1N=C(c2ccc(N3CCNCC3)cc2)c2cc(OC)c(OC)cc2C[C@@H]1C [Example 131.1, (4S)-7,8-dimethoxy-N,4-dimethyl-1-[4-(piperazin-1-yl)phenyl]-4,5-dihydro-3H-2,3-benzodiazepine-3-carboxamide] the IC50 [1] was 110 nM, the IC50 [2] was 70 nM and the IC50 [3] was 60 nM.
Compound CNC(=O)N1N=C(c2ccc(N3CCN(S(C)(=O)=O)CC3)cc2)c2cc(OC)c(OC)cc2C[C@@H]1C [Example 135.1, (4S)-7,8-dimethoxy-N,4-dimethyl-1-{4-[4-(methylsulphonyl)piperazin-1-yl]phenyl}-4,5-dihydro-3H-2,3-benzodiazepine-3-carboxamide] has an IC50 [1] of 150 nM, an IC50 [2] of 40 nM and an IC50 [3] of 80 nM.
CNC(=O)C1CCN(c2ccc(C3=NN(C(=O)NC)[C@@H](C)Cc4cc(OC)c(OC)cc43)cc2)CC1 [Example 189.1, (4S)-7,8-dimethoxy-N,4-dimethyl-1-{4-[4-(methylcarbamoyl)piperidin-1-yl]phenyl}-4,5-dihydro-3H-2,3-benzodiazepine-3-carboxamide] showed an IC50 [5] of 80 nM, an IC50 [1] of 210 nM and an IC50 [2] of 40 nM. The IC50 [3] was 100 nM.
With CNC(=O)N1N=C(c2ccc(N3CCN(C)CC3)cc2)c2cc(OC(F)(F)F)ccc2C[C@@H]1C [Example 250.2, (4S)-N,4-dimethyl-1-[4-(4-methyl-1-piperazinyl)phenyl]-8-(trifluoromethoxy)-4,5-dihydro-3H-2,3-benzodiazepine-3-carboxamide] the IC50 [1] was 50 nM, the IC50 [2] was 20 nM and the IC50 [3] was 40 nM.
